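Five concentrations, 48 hours, 96-well plates. GI50: concentration for 50% inhibition of growth.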 Activity calls are given as the source filed them. Rule as the data show it: active = GI50 up to about 1.1 µM and inactive = higher.
Tests used:
Experiment in all cases: NCI anticancer screen, dose series, 48 h
[1] = system: A498
[2] = system: TK-10
[3] = system: NCI-H226
[4] = system: OVCAR-4
[5] = system: A549
[6] = system: IGROV-1
[7] = system: SF-295
[8] = system: HCT-116
[9] = system: CCRF-CEM
[10] = system: MDA-N
[11] = system: HCT-15
[12] = system: MCF7
[13] = system: CAKI-1
[14] = system: KM12
[15] = system: NCI-H460
[16] = system: M14
[17] = system: NCI-H23
[18] = system: SK-OV-3
[19] = system: SNB-75

Row | Compound | GI50 [1] | GI50 [2] | GI50 [3] | GI50 [4] | GI50 [5] | GI50 [6] | GI50 [7] | GI50 [8] | GI50 [9] | GI50 [10] | GI50 [11] | GI50 [12] | GI50 [13] | GI50 [14] | GI50 [15] | GI50 [16] | GI50 [17] | GI50 [18] | GI50 [19]
1 | COC(=O)[C@]12CC[C@H]3CN(S(=O)(=O)c4ccc(C)cc4)[C@H]([C@H]31)[C@H](c1ccco1)N2S(=O)(=O)c1ccc(C)cc1 | 53.2 µM (inactive) | 56.5 µM (inactive) | 42.5 µM (inactive) | 27.7 µM (inactive) | 31.2 µM (inactive) | 35.8 µM (inactive) | 35.6 µM (inactive) | 27.2 µM (inactive) | 45.3 µM (inactive) | 24.7 µM (inactive) | 34 µM | 32.2 µM (inactive) | 38.1 µM (inactive) | 32.9 µM (inactive) | 35.8 µM (inactive) | 26.8 µM (inactive) | 48.1 µM (inactive) | > 100 µM (inactive) | 
2 | COc1ccc(OC)c(C23CCCC(C2)N(C)CC3)c1 (stereo not drawn) | 32.3 µM (inactive) | 40.3 µM (inactive) |  | 24.9 µM (inactive) | 22.3 µM (inactive) |  | 38.5 µM (inactive) | 13.8 µM (inactive) |  | 27.4 µM (inactive) | 34 µM | 16.6 µM (inactive) | 46.5 µM (inactive) | 18.4 µM (inactive) | 19.2 µM (inactive) | 17.6 µM (inactive) | 32.1 µM (inactive) |  | 
3 | COC(=O)C1=C(C(=O)OC)SC2(S1)C1=C(CCCC1)SC(C(=O)OC)=C2C(=O)OC | 6.21 µM (inactive) | 10.9 µM (inactive) |  | 12.2 µM (inactive) | 14.6 µM (inactive) | 8.32 µM (inactive) | 14.6 µM (inactive) | 1.52 µM (inactive) | 1.7 µM (inactive) | 3.9 µM (inactive) | 4.39 µM | 2.61 µM (inactive) | 4.06 µM (inactive) | 5.74 µM (inactive) | 3.84 µM (inactive) | 16.9 µM (inactive) | 15.8 µM (inactive) | 14.9 µM (inactive) | 
4 | O=C(O)c1cc([N+](=O)[O-])cc2c(=O)c3cnccc3[nH]c12 | > 100 µM (inactive) |  | > 100 µM (inactive) | > 100 µM (inactive) |  | > 100 µM (inactive) | > 100 µM (inactive) | > 100 µM (inactive) | > 100 µM (inactive) | > 100 µM (inactive) | > 100 µM | > 100 µM (inactive) | > 100 µM (inactive) | > 100 µM (inactive) | > 100 µM (inactive) | > 100 µM (inactive) | > 100 µM (inactive) | > 100 µM (inactive) | > 100 µM (inactive)
5 | CC(=O)NC1(NC(C)=O)C2CC(C1Cc1ccccc1)C(C)(C)C2C (stereo not drawn) | > 100 µM (inactive) | > 100 µM (inactive) | > 100 µM (inactive) | > 100 µM (inactive) | > 100 µM (inactive) | > 100 µM (inactive) | > 100 µM (inactive) | > 100 µM (inactive) | > 100 µM (inactive) | > 100 µM (inactive) |  | > 100 µM (inactive) | > 100 µM (inactive) | > 100 µM (inactive) | > 100 µM (inactive) | > 100 µM (inactive) | > 100 µM (inactive) | > 100 µM (inactive) | > 100 µM (inactive)
6 | CN1CC[C@@]2(c3cccc(O)c3)CC(=O)/C(=C/c3ccccc3)[C@H]1C2.[O-][Cl+3]([O-])([O-])O | 9.31 µM (inactive) | 15.7 µM (inactive) | 17.8 µM (inactive) | 7.94 µM (inactive) | 15 µM (inactive) | 13.7 µM (inactive) | 11.3 µM (inactive) | 3.37 µM (inactive) | 3.12 µM (inactive) | 4.88 µM (inactive) | 5.89 µM | 2.64 µM (inactive) | 1.64 µM (inactive) | 3.81 µM (inactive) | 3.52 µM (inactive) | 10.5 µM (inactive) | 16 µM (inactive) |  | 2.47 µM (inactive)
7 | CC1=NN=C(N)N/C1=C/C(Sc1ccc(Cl)cc1)c1cccs1 (stereo not drawn) | 16.4 µM (inactive) | 36.2 µM (inactive) | 17 µM (inactive) | 16.5 µM (inactive) | 10.3 µM (inactive) | 11.4 µM (inactive) | 11.7 µM (inactive) | 13.6 µM (inactive) | 3.52 µM (inactive) | 16.1 µM (inactive) | 6.12 µM | 6.53 µM (inactive) | 15.7 µM (inactive) | 11.1 µM (inactive) | 13.6 µM (inactive) | 13.4 µM (inactive) | 13.9 µM (inactive) | 12 µM (inactive) | 
8 | O=CC1OC(=O)c2cc(O)c(O)c(O)c2-c2c(cc(O)c(O)c2O)C(=O)OC1C(O)C(O)CO (stereo not drawn) | > 100 µM (inactive) | 19.5 µM (inactive) | > 100 µM (inactive) | 17.4 µM (inactive) | 49.8 µM (inactive) | > 100 µM (inactive) | 27.9 µM (inactive) | 28.1 µM (inactive) | 38.8 µM (inactive) | 18.7 µM (inactive) | 69.2 µM | 19.1 µM (inactive) | 19.1 µM (inactive) | 41.5 µM (inactive) | 28.8 µM (inactive) | 35 µM (inactive) | > 100 µM (inactive) |  | > 100 µM (inactive)

Reference: ChEMBL document CHEMBL1201862, “PubChem BioAssay data set” (2004)
